Measured values taken from ChEMBL document CHEMBL1201862, “PubChem BioAssay data set” (2004).
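Following 48 hours of exposure in 96-well plates, responses at five concentrations were used to interpolate endpoints linearly. Abbreviation: GI50, concentration required for 50% inhibition of growth.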 Calls of active or inactive are those of the source. Rule as the data show it: active = GI50 up to about 1.1 µM and inactive = higher.

Tests used:
Assay in all cases: NCI anticancer screen, dose series, 48 h
[1] = test system: 786-0
[2] = test system: A549
[3] = test system: ACHN
[4] = test system: BT-549
[5] = test system: DU-145
[6] = test system: HCC 2998
[7] = test system: HOP-62
[8] = test system: HT-29
[9] = test system: MCF7
[10] = test system: MDA-MB-231
[11] = test system: MDA-MB-435
[12] = test system: PC-3
[13] = test system: SK-MEL-2
[14] = test system: SK-MEL-5
[15] = test system: Malme-3M
[16] = test system: T47D

Measured: GI50

c1ccc(OCc2nnc(CCCCCCCCc3nnc(COc4ccccc4)o3)o2)cc1
inactive: [1] 47.5 µM | [2] > 100 µM | [3] > 100 µM | [4] > 100 µM | [5] > 100 µM | [6] 28.6 µM | [7] 97.3 µM | [8] > 100 µM | [9] > 100 µM | [10] 47.6 µM | [11] > 100 µM | [12] > 100 µM | [13] > 100 µM | [14] > 100 µM

COc1ccc(/C=C2\C[C@H]3[C@@H]4CCC5=C/C(=N/O)CC[C@]5(C)[C@H]4CC[C@]3(C)\C2=N\O)cc1OC
inactive: [1] 17.8 µM | [2] 6.98 µM | [3] 14.5 µM | [4] 57.8 µM | [5] 63.4 µM | [6] 10.7 µM | [7] 40.6 µM | [8] 7.66 µM | [9] 6.87 µM | [11] 18.8 µM | [15] 43.5 µM | [12] 10.7 µM | [13] 15.9 µM | [14] 2.75 µM | [16] 7.66 µM

CCOC(=O)C1=NN(c2ccc(Cl)cc2)C2=CC(C)=NN(C)C(=S)N21
inactive: [2] 95.7 µM | [3] 72.6 µM | [5] 79.3 µM | [6] > 100 µM | [8] > 100 µM | [9] > 10 µM | [10] 44.5 µM | [11] > 100 µM | [12] > 100 µM | [13] > 10 µM | [14] > 100 µM | [16] 23.9 µM

CC(=C(c1ccccc1)c1ccccc1)N1C(=O)CC(=O)N1C
inactive: [2] 35 µM | [3] > 100 µM | [4] 34.8 µM | [5] > 100 µM | [6] 47 µM | [7] 27.5 µM | [8] > 100 µM | [9] 43.8 µM | [11] 41.1 µM | [12] 21.9 µM | [13] 16.7 µM | [14] 95.7 µM | [16] 78.2 µM

Cc1ccnc2nc(N)ccc12
inactive: [1] > 100 µM | [2] > 100 µM | [3] > 100 µM | [4] > 100 µM | [5] > 100 µM | [8] > 100 µM | [10] > 100 µM | [11] > 100 µM | [15] > 100 µM | [12] > 100 µM | [13] > 100 µM | [14] > 100 µM | [16] > 100 µM

N=C(N)SCCC(=O)CCSC(=N)N
inactive: [2] > 100 µM | [3] > 100 µM | [5] > 100 µM | [6] > 100 µM | [8] > 100 µM | [9] > 100 µM | [10] > 100 µM | [11] > 100 µM | [12] > 100 µM | [14] > 100 µM | [16] > 100 µM

O=C(O)c1ccc(C(=O)O)c2c(C(=O)O)ccc(C(=O)O)c12
inactive: [1] > 100 µM | [2] > 100 µM | [3] > 100 µM | [5] > 100 µM | [7] > 100 µM | [8] > 100 µM | [9] > 100 µM | [10] > 100 µM | [11] > 100 µM | [15] > 100 µM | [12] > 100 µM | [13] > 100 µM | [14] > 100 µM | [16] > 100 µM

CC=C/C=C/[C@@H]1O[C@](O)([C@H](CC)C(=O)NC/C=C/C=C(\C)[C@@H](OC)[C@@H](C)[C@@H]2O[C@H](/C=C/C=C/C=C(\C)C(=O)c3c(O)cc[nH]c3=O)[C@H](O)[C@@H]2O)[C@H](O)[C@H](O)C1(C)C
inactive: [2] > 100 µM | [3] > 100 µM | [6] > 100 µM | [7] > 100 µM | [8] > 100 µM | [9] > 100 µM | [11] > 100 µM | [15] 94.2 µM | [12] > 100 µM | [13] > 100 µM
